Reference: ChEMBL document CHEMBL3580563, “Kaempulchraols A-H, Diterpenoids from the Rhizomes of Kaempferia pulchra Collected in Myanmar” (J Nat Prod, 2015)

Legend:
Assay type in all cases: functional, cell-based
PSN1 = test: Antiproliferative activity against human PSN1 cells after 72 hrs by WST8 assay; details: PSN1, 72 h
[1] = Antiproliferative activity against human TIG3 cells after 72 hrs by WST8 assay; details: TIG-3, 72 h
A549 = test: Antiproliferative activity against human A549 cells after 72 hrs by WST8 assay; details: A549, 72 h
[2] = Antiproliferative activity against human PANC1 cells after 72 hrs by WST8 assay; details: PANC-1, 72 h
MDA-MB-231 = test: Antiproliferative activity against human MDA-MB-231 cells after 72 hrs by WST8 assay; details: MDA-MB-231, 72 h

Row | SMILES | IC50 (PSN1) | IC50 [1] | IC50 (A549) | IC50 [2] | IC50 (MDA-MB-231)
1 | C=C[C@]1(C)C=C2CC[C@H]3C(C)(C)[C@H](O)C[C@H](O)[C@]3(C)[C@H]2CC1 | 12.3 µM | – | – | – | –
2 | O=c1[nH]cc(F)c(=O)[nH]1 [FLUOROURACIL] | 4.4 µM | 8.4 µM | 2800 nM | 3.7 µM | 5.2 µM
